Experimental data reported in patent US20070254035A1, “Preparing Active Polymer Extrudates” (priority 2003, published 2007).

How the values were obtained:
lysozyme = assay: Standard activity assay of lysozyme liberated from the CO2-processed polymer extrudate; assay type: biochemical; conditions: Example 6: poly(D,L-lactic acid) MW 71,000 : enzyme ca. 20:1 w/w, CO2 ca. 35° C., 300 bar; compared to lysozyme that has not undergone processing
Procedure: (§1) Poly(D,L-lactic acid) (MW 71,000) and lysozyme enzyme powder are added to a high pressure autoclave at a defined ratio (ca. 20:1 weight for weight). The autoclave is charged with carbon dioxide at a defined temperature and pressure (ca. 35° C., 300 bar) sufficient to ensure plasticization of the polymer by carbon dioxide and the contents are mixed together. Discharging of the contents into a second autoclave at atmospheric pressure, through a longer angled nozzle, yields a solid fibrous-mesh product, containing lysozyme, of similar morphology to Example 1. Upon liberation from the polymer the biological activity of lysozyme is unaffected by the carbon dioxide processing compared to lysozyme that has not undergone processing. Standard activity assays described in the literature are used to determine the lysozyme activity.

ribonuclease = assay: Standard activity assay of ribonuclease liberated from the CO2-processed polymer extrudate; assay type: biochemical; conditions: Example 5: poly(D,L-lactic acid) MW 71,000 : enzyme ca. 20:1 w/w, CO2 ca. 35° C., 300 bar; compared to ribonuclease that has not undergone processing
Procedure: as §1, with “ribonuclease” for “lysozyme”, “ribonuclease,” for “lysozyme,”

Substance	biological activity of lysozyme upon liberation from the polymer (lysozyme)	biological activity of ribonuclease upon liberation from the polymer (ribonuclease)
lysozyme	unaffected	–
ribonuclease	–	unaffected
